Source: PubChem BioAssay (NCI)
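96-well plates; 48 h exposure; 5 concentrations. Endpoints by linear interpolation between flanking doses. Not reached: highest tested concentration assigned. The concentration for 50% growth inhibition is given as GI50. TGI marks complete inhibition of growth.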

Columns and labels:
Test in all cases: NCI tumour cell line growth inhibition, 48 h
TK-10 renal = test system: TK-10 renal
UACC-62 melanoma = test system: UACC-62 melanoma
HOP-92 NSCLC = test system: HOP-92 NSCLC
HCT-15 colon = test system: HCT-15 colon
IGROV1 ovarian = test system: IGROV1 ovarian
COLO 205 colon = test system: COLO 205 colon
SNB-19 CNS = test system: SNB-19 CNS
NCI-H522 lung = test system: NCI-H522 lung
SF-295 CNS = test system: SF-295 CNS
RPMI-8226 leukemia = test system: RPMI-8226 leukemia
MOLT-4 leukemia = test system: MOLT-4 leukemia
MCF7 breast = test system: MCF7 breast
SW-620 colon = test system: SW-620 colon
NCI/ADR-RES ovarian = test system: NCI/ADR-RES ovarian
786-0 renal = test system: 786-0 renal
DU-145 prostate = test system: DU-145 prostate
T-47D breast = test system: T-47D breast
SK-OV-3 ovarian = test system: SK-OV-3 ovarian
HS 578T breast = test system: HS 578T breast
SR leukemia = test system: SR leukemia
HOP-62 NSCLC = test system: HOP-62 NSCLC
OVCAR-5 ovarian = test system: OVCAR-5 ovarian
NCI-H226 lung = test system: NCI-H226 lung
SK-MEL-2 melanoma = test system: SK-MEL-2 melanoma
EKVX NSCLC = test system: EKVX NSCLC
A549 NSCLC = test system: A549 NSCLC
SK-MEL-5 melanoma = test system: SK-MEL-5 melanoma
RXF 393 renal = test system: RXF 393 renal
NCI-H460 lung = test system: NCI-H460 lung
CCRF-CEM leukemia = test system: CCRF-CEM leukemia
HCC-2998 colon = test system: HCC-2998 colon
M14 melanoma = test system: M14 melanoma
KM12 colon = test system: KM12 colon
OVCAR-8 ovarian = test system: OVCAR-8 ovarian
MDA-MB-435 = test system: MDA-MB-435
SN12C renal = test system: SN12C renal
BT-549 breast = test system: BT-549 breast
HL-60(TB) leukemia = test system: HL-60(TB) leukemia
K-562 leukemia = test system: K-562 leukemia
HT29 colon = test system: HT29 colon
PC-3 prostate = test system: PC-3 prostate
SF-539 CNS = test system: SF-539 CNS
SNB-75 CNS = test system: SNB-75 CNS
SF-268 CNS = test system: SF-268 CNS
CAKI-1 renal = test system: CAKI-1 renal
UO-31 renal = test system: UO-31 renal
OVCAR-4 ovarian = test system: OVCAR-4 ovarian
U251 CNS = test system: U251 CNS
SK-MEL-28 melanoma = test system: SK-MEL-28 melanoma
MDA-MB-231 breast = test system: MDA-MB-231 breast
MALME-3M melanoma = test system: MALME-3M melanoma
NCI-H23 lung = test system: NCI-H23 lung
HCT-116 colon = test system: HCT-116 colon
LOX IMVI melanoma = test system: LOX IMVI melanoma
UACC-257 melanoma = test system: UACC-257 melanoma
ACHN renal = test system: ACHN renal

With `C=C(C=O)[C@@H]1CC[C@]2(C)[C@H](CC=C3[C@H]4[C@@H](C)[C@H](C)CC[C@]4(C(=O)OC)CC[C@]32C)[C@@]1(C)CCC#N` the GI50 (TK-10 renal) was 1610 nM, the TGI (TK-10 renal) was 3.32 µM and the GI50 (UACC-62 melanoma) was 1590 nM. For the same compound, the TGI (UACC-62 melanoma) was 3.59 µM, the GI50 (HOP-92 NSCLC) was 1300 nM and the TGI (HOP-92 NSCLC) was 2640 nM. For the same compound, the GI50 (HCT-15 colon) was 1470 nM, the TGI (HCT-15 colon) was 3.07 µM and the GI50 (IGROV1 ovarian) was 1820 nM. It also gave a TGI (IGROV1 ovarian) of 3.75 µM, a GI50 (COLO 205 colon) of 1800 nM and a TGI (COLO 205 colon) of 3.55 µM. It also gave a GI50 (SNB-19 CNS) of 1940 nM, a TGI (SNB-19 CNS) of 4.16 µM and a GI50 (NCI-H522 lung) of 1760 nM. It also gave a TGI (NCI-H522 lung) of 3.31 µM, a GI50 (SF-295 CNS) of 1340 nM and a TGI (SF-295 CNS) of 2670 nM. The GI50 (RPMI-8226 leukemia) was 1610 nM, the TGI (RPMI-8226 leukemia) was 5.71 µM and the GI50 (MOLT-4 leukemia) was 2660 nM. For the same compound, the TGI (MOLT-4 leukemia) was 12.6 µM, the GI50 (MCF7 breast) was 1610 nM and the TGI (MCF7 breast) was 4.09 µM. The GI50 (SW-620 colon) was 1760 nM, the TGI (SW-620 colon) was 3.36 µM and the GI50 (NCI/ADR-RES ovarian) was 1950 nM. For the same compound, the TGI (NCI/ADR-RES ovarian) was 4.58 µM, the GI50 (786-0 renal) was 1730 nM and the TGI (786-0 renal) was 3.29 µM. It also gave a GI50 (DU-145 prostate) of 1940 nM, a TGI (DU-145 prostate) of 3.75 µM and a GI50 (T-47D breast) of 1340 nM. It also gave a TGI (T-47D breast) of 5.54 µM, a GI50 (SK-OV-3 ovarian) of 2390 nM and a TGI (SK-OV-3 ovarian) of 5.26 µM. The GI50 (HS 578T breast) was 2530 nM, the TGI (HS 578T breast) was 5.98 µM and the GI50 (SR leukemia) was 1860 nM. For the same compound, the TGI (SR leukemia) was greater than 100 µM, the GI50 (HOP-62 NSCLC) was 1960 nM and the TGI (HOP-62 NSCLC) was 3.9 µM. The GI50 (OVCAR-5 ovarian) was 2160 nM, the TGI (OVCAR-5 ovarian) was 4.89 µM and the GI50 (NCI-H226 lung) was 1810 nM. The TGI (NCI-H226 lung) was 3.94 µM, the GI50 (SK-MEL-2 melanoma) was 1710 nM and the TGI (SK-MEL-2 melanoma) was 3.21 µM. For the same compound, the GI50 (EKVX NSCLC) was 1890 nM, the TGI (EKVX NSCLC) was 3.71 µM and the GI50 (A549 NSCLC) was 3.49 µM. It also gave a TGI (A549 NSCLC) of 14.8 µM, a GI50 (SK-MEL-5 melanoma) of 1740 nM and a TGI (SK-MEL-5 melanoma) of 3.14 µM. It also gave a GI50 (RXF 393 renal) of 1990 nM, a TGI (RXF 393 renal) of 3.55 µM and a GI50 (NCI-H460 lung) of 1880 nM. The TGI (NCI-H460 lung) was 3.54 µM, the GI50 (CCRF-CEM leukemia) was 1420 nM and the TGI (CCRF-CEM leukemia) was 9.47 µM. It also gave a GI50 (HCC-2998 colon) of 1630 nM, a TGI (HCC-2998 colon) of 3.11 µM and a GI50 (M14 melanoma) of 1790 nM. For the same compound, the TGI (M14 melanoma) was 3.84 µM, the GI50 (KM12 colon) was 1600 nM and the TGI (KM12 colon) was 3.06 µM. For the same compound, the GI50 (OVCAR-8 ovarian) was 1900 nM, the TGI (OVCAR-8 ovarian) was 3.89 µM and the GI50 (MDA-MB-435) was 1810 nM. For the same compound, the TGI (MDA-MB-435) was 3.53 µM, the GI50 (SN12C renal) was 1820 nM and the TGI (SN12C renal) was 3.83 µM. The GI50 (BT-549 breast) was 1620 nM, the TGI (BT-549 breast) was 3.24 µM and the GI50 (HL-60(TB) leukemia) was 2260 nM. For the same compound, the TGI (HL-60(TB) leukemia) was 5.95 µM, the GI50 (K-562 leukemia) was 2830 nM and the TGI (K-562 leukemia) was greater than 100 µM. The GI50 (HT29 colon) was 1590 nM, the TGI (HT29 colon) was 3.47 µM and the GI50 (PC-3 prostate) was 1200 nM. It also gave a TGI (PC-3 prostate) of 3.1 µM, a GI50 (SF-539 CNS) of 1930 nM and a TGI (SF-539 CNS) of 3.49 µM. For the same compound, the GI50 (SNB-75 CNS) was 1550 nM, the TGI (SNB-75 CNS) was 3.01 µM and the GI50 (SF-268 CNS) was 1990 nM. The TGI (SF-268 CNS) was 3.57 µM, the GI50 (CAKI-1 renal) was 1560 nM and the TGI (CAKI-1 renal) was 3.16 µM. The GI50 (UO-31 renal) was 1480 nM, the TGI (UO-31 renal) was 2810 nM and the GI50 (OVCAR-4 ovarian) was 3.07 µM. It also gave a TGI (OVCAR-4 ovarian) of 10.7 µM, a GI50 (U251 CNS) of 1680 nM and a TGI (U251 CNS) of 3.12 µM. For the same compound, the GI50 (SK-MEL-28 melanoma) was 1810 nM, the TGI (SK-MEL-28 melanoma) was 3.33 µM and the GI50 (MDA-MB-231 breast) was 1790 nM. The TGI (MDA-MB-231 breast) was 3.76 µM, the GI50 (MALME-3M melanoma) was 1960 nM and the TGI (MALME-3M melanoma) was 3.69 µM. For the same compound, the GI50 (NCI-H23 lung) was 1810 nM, the TGI (NCI-H23 lung) was 3.59 µM and the GI50 (HCT-116 colon) was 1490 nM. The TGI (HCT-116 colon) was 3.05 µM, the GI50 (LOX IMVI melanoma) was 1610 nM and the TGI (LOX IMVI melanoma) was 3.08 µM. It also gave a GI50 (UACC-257 melanoma) of 1820 nM, a TGI (UACC-257 melanoma) of 3.53 µM and a GI50 (ACHN renal) of 1640 nM. It also gave a TGI (ACHN renal) of 3.02 µM.
